From patent US20070191402A1, “Method of searching substrate having antidiabetic activity” (KYOWA HAKKO KOGYO CO., LTD., priority 2002, published 2007)

Tests used:
[1] = test system: pancreatic β cell (MIN6 cell); assay: Inhibition of binding of [3H]-labeled Compound 16 to pancreatic β cell; set-up: species or system murine; settings: for Binding inhibitory activity (%): test compound 1 μmol/l, 10 nmol/l [3H]-labeled Compound 16, MIN6 cell, 4° C.; for Binding inhibition (%): pancreatic β cells, [3H]-labeled Compound 16, tested substance 1 μmol/l or 10 μmol/l
Description: MIN6 cell cultured to almost confluence in a 24-well plate for cell culture (manufactured by Corning) was washed twice with KRH buffer (119 mmol/l NaCl, 4.74 mmol/KCl, 2.54 mmol/l calcium chloride (CaCl2), 1.19 mmol/l magnesium sulfate (MgSO4), 1.19 mmol/l potassium dihydrogen phosphate (KH2PO4), 10 mmol/l HEPES, 2 mmol/l glucose, 0.1 w/v % bovine serum albumin (BSA), pH 7.3). Subsequently, the KRH buffer was added at 1 ml per well, for preincubation at 37° C. for 45 minutes. After preincubation, the supernatant was discarded, and 0.15 ml of the KRH buffer, […] at 4° C. for one hour or longer until the reaction reached equilibrium. Subsequently, the cell was washed twice using the KRH buffer. The KRH buffer was added at 2 ml per well, which was then left to stand at room temperature for 20 minutes. The cell was again washed twice by using the KRH buffer. The radioactivity remaining in each well was counted with a liquid scintillation counter to determine the binding amount.
The difference between the binding amount of the [^3H]-labeled Compound 16 (total binding amount) under conditions with no addition of any test compound and the binding amount of the [^3H]-labeled Compound 16 (non-specific binding amount) under conditions in the presence of the Compound 16 at 10 μmol/l was defined as specific binding amount.
According to the method described in Example 5, a substance having anti-diabetic activity was screened for, using the inhibitory activity of the binding between pancreatic β cells and [^3H]-labeled Compound 16. A tested substance was dissolved in dimethylsulfoxide and then added to give a final concentration of 1 μmol/l. The radioactivity with addition of the unlabeled Compound 16 was defined as the non-specific binding amount and the radioactivity without addition of the unlabeled Compound 16 was defined as the total binding amount, and then the individual specific binding amounts were calculated by the method described in Example 6. Using the following formula, the binding inhibition ratio was determined. [formula]

[2] = test system: MIN6 cell; assay: Insulin secretion test using MIN6 cell; type: cell-based, murine; settings: for Insulin secretory activity (%): MIN6 cell, glucose 14.5 mmol/l or 8.4 mmol/l; for Insulin secretion-promoting activity (%): 10 μmol/l
Description: Culturing MIN6 cell and testing insulin secretion using MIN6 cell were carried out according to the method described in Diabetorogia, 36, 1139-1145 (1993).
In other words, the influence of a compound on the insulin secretion activity in the presence of 14.5 mmol/l glucose was assessed by assaying the amount of insulin in the cell culture supernatant collected as follows.
The MIN6 cell cultured in a 24-well plate was washed twice with 1 ml of buffer A [119 mmol/l NaCl, 4.74 mmol/l KCl, 2.54 mmol/l CaCl2, 1.19 mmol/l MgSO4, 1.19 mmol/l KH2PO4, 10 mmol/l 2-[4-(2-hydroxylethyl)-1-piperadinyl]ethanesulfonic acid, 0.1% BSA, pH 7.3] containing 2 mmol/l glucose. Subsequently, the resulting cell was incubated in 1 ml of the buffer A containing 2 mmol/l glucose at 37° C. for 45 minutes. The culture supernatant was exchanged with the buffer A (1 ml) containing test compounds of various concentrations and 8.4 mmol/l glucose and incubated at 37° C. for 45 minutes to collect the culture supernatant.
Antibody-reactive insulin secreted in the culture supernatant was assayed by radioimmunoassay [Methods in Investigative and Diagnostic Endocrinology, Vol. 2A, 2B, North-Holland Publishing Co., Amsterdam (1973)] after the culture supernatant was diluted with phosphate buffer containing 1% BSA, 0.1% Tween 20, 0.12% EDTA 2Na, and 0.1% sodium azide. A standard curve was prepared by using human insulin as the standard substance, and individual insulin values were calculated on the basis of the curve.

[3] = promoted insulin secretion level of Compound 16 = 100%

Compound	Binding inhibitory activity (%) [1]	Insulin secretory activity (%) [2]	further results
CCCN1C(=O)N2CC(CCc3ccccc3)N=C2c2[nH]c(C3CCCC3)nc21 (centres unmarked) [compound 31]	112.4%	80.5%	
CCCN1C(=O)N2CC(Cc3ccccc3)N=C2c2[nH]c(C3CC3)nc21 (centres unmarked) [compound 36]	57.9%	47.0%	
CCCN1C(=O)N2CC(Cc3ccccc3)N=C2c2[nH]c(C3CCC3)nc21 (centres unmarked) [compound 37]	73.7%	61.0%	
CCCN1C(=O)N2CC(Cc3ccccc3)N=C2c2[nH]c(C3CCCCC3)nc21 (centres unmarked) [compound 38]	71.8%	83.0%	
CCCN1C(=O)N2CC(Cc3ccccc3)N=C2c2[nH]c(CC3CCCC3)nc21 (centres unmarked) [compound 40]	38.5%	76.3%	
CCCN1C(=O)N2CC(Cc3ccccc3)N=C2c2[nH]c(C(C)C)nc21 (centres unmarked) [compound 41]	55.0%	37.2%	
CCCN1C(=O)N2CC(Cc3ccccc3)N=C2c2[nH]c(C(C)(C)C)nc21 (centres unmarked) [compound 43]	77.6%	54.4%	
CCCN1C(=O)N2CC(Cc3cccc(C)c3)N=C2c2[nH]c(C3CCCC3)nc21 (centres unmarked) [compound 61]	50.8%	80.4%	
CCCN1C(=O)N2CC(Cc3ccc(O)cc3)N=C2c2[nH]c(C3CCCC3)nc21 (centres unmarked) [compound 76]	12.6%	16.9%	
CN1C(=O)N2CC(Cc3ccccc3)N=C2c2[nH]c(C3CCCC3)nc21 (centres unmarked) [compound 84]	66.4%	31.7%	
O=C1N2CC(Cc3ccccc3)N=C2c2[nH]c(C3CCCC3)nc2N1c1ccccc1 (centres unmarked) [compound 85]	72.0%	26.7%	
CCCN1C(=O)N2CC(Cn3cncn3)N=C2c2[nH]c(C3CCCC3)nc21 (centres unmarked) [compound 116]	7.9%	−1.7%	
CCCN1C(=O)N2CC(Cn3cccc3)N=C2c2[nH]c(C3CCCC3)nc21 (centres unmarked) [compound 117]	68.6%	43.5%	
CCCN1C(=O)N2CC(Cc3ccccc3)N=C2c2[nH]c(COCC)nc21 (centres unmarked) [compound 138]	60.7%	7.8%	
CCCN1C(=O)N2CC(Cc3ccccc3)N=C2c2[nH]c(C3CCCO3)nc21 (centres unmarked) [compound 144]	50.5%	28.5%	
CCCN1C(=O)N2CC(Cc3ccccc3)N=C2c2[nH]c(C3CCC(O)CC3)nc21 (centres unmarked) [compound 147]	56.8%	45.6%	
O=C1N2CC(Cc3ccccc3)N=C2c2[nH]c(C3CCCC3)nc2N1Cc1ccc(F)cc1 (centres unmarked) [compound 175]	49.5%	54.7%	
CCCN1C(=O)N2CC(Cc3ccccc3)N=C2c2[nH]c(C)nc21 (centres unmarked) [compound 183]	41.6%	22.5%	
CCCc1nc2c([nH]1)C1=NC(Cc3ccccc3)CN1C(=O)N2CCC (centres unmarked) [compound 184]	78.5%	75.0%	
CCCc1nc2c([nH]1)C1=NC(Cc3ccc(C#N)cc3)CN1C(=O)N2CCC (centres unmarked) [compound 185]	38.4%	30.7%	
CCCN1C(=O)N2CC(Cc3ccc(F)cc3)N=C2c2[nH]c(C3CCCC3)nc21 (centres unmarked) [compound 187]	73.5%	85.0%	
CCCN1C(=O)N2CC(Cc3ccc(C(=O)O)cc3)N=C2c2[nH]c(C3CCCC3)nc21 (centres unmarked) [compound 188]	−7.6%	−8.0%	
O=C1N2CC(Cc3ccccc3)N=C2c2[nH]c(C3CCCC3)nc2N1CCCO (centres unmarked) [compound 189]	56.4%	44.9%	
CNc1nc(NC(C)(C)C)nc(NC(C)(C)C)n1 [compound 193]			inhibition ratio (binding of [3H]-labeled Compound 16 to pancreatic β cells) ([1]; at 10 μmol/l): 84%; Binding inhibition (%) [1]: 84.0%; Insulin secretion-promoting activity (%) [2, 3]: 194.8%; promoted insulin secretion level [2, 3]: 195%
CC(C)(C)Nc1nc(NC(C)(C)C)nc(N2CCOCC2)n1 [compound 194]			Binding inhibition (%) [1]: 78.1%; Insulin secretion-promoting activity (%) [2, 3]: 122.7%
C1=CC2N=CN(c3nc(-n4cnc5ccccc54)nc(-n4cnc5ccccc54)n3)C2C=C1 (centres unmarked) [compound 197]			Binding inhibition (%) [1]: 15.0%; Insulin secretion-promoting activity (%) [2, 3]: 31.9%
CN(C)c1nc(NC(C)(C)C)nc(NC(C)(C)C)n1 [compound 198]			Binding inhibition (%) [1]: 99.0%; Insulin secretion-promoting activity (%) [2, 3]: 30.6%
